The test system of assay [1] is DBA/2 Ha mice with SMT-F subcutaneous tumors. The experiment in a line: Proto IX content of tissues of tumor-bearing mice fed the agent (Example 6). It counts as in vivo. Conditions: for concentration of Proto IX in tissue, Adrenal / concentration of Proto IX in tissue, Intestine / concentration of Proto IX in tissue, Kidneys / concentration of Proto IX in tissue, Liver / concentration of Proto IX in tissue, Tumor / Proto IX Mean Cps per gram, Intestine: 2000 ppm in feed; for Proto IX Mean Cps per gram, Adrenal / Proto IX Mean Cps per gram, Kidneys / Proto IX Mean Cps per gram, Liver / Proto IX Mean Cps per gram, Tumor / Weight of Tumor as excised: 2000 ppm in feed Days 2-10, sacrificed Day 10 (6j Day 7). The protocol:
In this Example the enzyme-inhibiting agents were added to the feed of tumor-bearing mice; for some of the mice, used as a control, no agent was added to the feed. The mice were then sacrificed and their kidneys, intestines, adrenal glands, liver and tumor were removed and analyzed for their content of Proto IX. The following enzyme-inhibiting agents were employed: [drawing 10]
More particularly, the mice were DBA/2 Ha mice which had been injected with SMT-F subcutaneous tumors on Day 0 in the right shoulder. The mice, individually housed, received untreated Purina Rodent Chow 5001 Mash on Day 1; thereafter on Days 2 through 10 the mice received the same Mash treated with 2000 ppm of the inhibiting agent being tested (or, for the controls, the same untreated Mash). The treatment of the Mash was effected by blending it with a small amount of an acetone solution of the agent to be tested. The mice were then sacrificed on Day 10, except for the mouse treated with the agent designated as 6j; the latter was sacrificed on Day 7. The tissues were refrigerated at 4° C. overnight, then blotted dry, and the fresh weight of each tissue sample was recorded. The tissues were then homogenized in 5 mL, or lo mL in the cases of intestines and liver, of acetone-0.1 N NH4 OH (9:I, v/v). The homogenates were then centrifuged at 1500 g and the supernatants were analyzed on a SPEX FAII2 spectrofluorometer; excitation 400 nm, emission 630 nm wavelengths, the optima for Proto IX. Proto IX accumulation was determined as CPS (fluorescent counts per second emitted) per gram of tissue. The results are tabulated below (results are averages for two mice for each treatment, except for treatments with agents 6f, 6h, 6i and 6j in each of which only one mouse was treated): […]

Assay [2] relates to HeLa cells. The experiment in a line: Proto IX production in HeLa cells, extract of cells alone (Example 7). Conditions: Homo sapiens, 100 uM agent, first formula (background-subtracted), read-out: increase in the amount of Proto IX relative to the control. It counts as cell-based. The procedure:
In a series of experiments along the lines of Examples 1 and 2, cultures of HeLa cells were incubated in the presence of 100 uM of various treating agents, listed below. The percentage given, next to each treating agent, indicates the increase in the amount of Proto IX produced in the presence of that treating agent relative to the amount produced by the control in the same experiment.
As in Examples 1 and 2, the data for this Example 7 were based on measurements of fluorescence (e.g. in counts per second, "cps"). In this Example, however, the measurements were made on an extract of the cells alone (in contrast to Examples 1 and 2 in which the disrupted cells and culture medium together were extracted), the fluorometric medium was the one described in Example 5 (containing 1% Tween-20, 50 mM Tris-HCl, 1 mM EDTA and 1 mM dithioerythritol, pH 8.5), and a cps measurement of the fluorometric medium per se was also made. In calculating the foregoing data for this Example, the following formula was used to calculate the percentage increases: [formula] where Ca is the counts per second for the sample resulting from treatment with the agent, Cc is the counts per second for the control sample, and Cm is the counts per second for the fluorometric medium per se (i.e. the background fluoroescence). On reviewing the data it was observed that Cc -Cm for this set of experiments was […] compared to Cm; for instance, individual measured values were 49025 and 52069 for Cc and 4295 for Cm. […] Accordingly, the data were recalculated using the formula: [formula] with the following results: 6a 336%; 5b 148%; 6c 154%; 6d 510%; 6e 320%; 6f 280%; 6g 329%; 6h 178%; 6i 171%; 6j 185%; 7a 118%; 7b 142%; 7c 103%; 7d 128%; 7e 173%; 7f 118%; 7q 155%; 7h 118%.

Assay [3] has as its system HeLa cells. As to the kind of experiment: Tetrapyrrole accumulation in treated HeLa cells (Example 1). It is filed as cell-based, human. Conditions: 100 μM agent, 3 days in the dark. The procedure: HeLa cells (a human tumor cell line commonly employed for tumor research and obtained from the American Type Culture Collection), in logarithmic growth phase (having been cultured at 37° C. for five days in one-liter Falcon tissue culture flasks), were washed in phosphate buffered saline (PBS). A 0.25% solution of trypsin in PBS (2 mL) was added, and, after several minutes, the cells were gently removed from the flask and placed into 110 mL of a 25 mM solution of Hepes in Minimum Essential Medium (MEM) supplemented with 10% v/v inactivated calf serum, 1.1 mL of a 200 mM solution of glutamine in 0.85% saline solution, and 11,000 units of penicillin/11,000 mcg streptomycin.
Then, 5.0 mL aliquots of the resulting resuspended cell culture were each placed into a 50 mL Falcon tissue culture flask and (except for the control) mixed with the treating agent. The aliquots were then incubated in the dark at 37° C. for three days. The cells were then removed and extracted under green light in the following manner:
Cells were removed from the bottom of the flask with the addition of 0.8 mL of a 0.25% solution of trypsin in PBS. After 1 hour of incubation in the dark, cells and medium were removed from the flasks, placed into round bottom centrifuge tubes, and then subjected to two rounds of freeze-thaw conditions to disrupt the cells and allow for extraction.
Ten mL of basic acetone (90% acetone:10% of 0.1 N NH4 OH) was then added to each tube, and the tubes were centrifuged to remove protein and cell debris. Five mL of water was added to the supernatant, followed by 0.5 mL of a saturated aqueous solution of NaCl. The pH was then adjusted to 6.8 by the dropwise addition of 2 M KH2 PO4. The aqueous acetone extract was then loaded onto a C8 Baker Prep column. The columns were dried and then washed with 2 mL of water. The tetrapyrroles were eluted with 2×1.5 mL volumes of 90/10 CH3 OH/H2 O. Extracts were then quantified on a spectrofluorometer.
Agent A was supplied as a filter-sterilized 250 mM solution in water, pH 6.5. Agents B, C, D, and E were supplied as 50 mM solutions in acetone. Acetone was also added to the control to provide a concentration of 0.2% v/v therein. The amounts of the agents added to the cell cultures were such as to give the concentrations specified in the Table 1 below. The amounts of the tetrapyrrole protoporphyrin IX ("Proto IX") produced are shown in that Table.

For assay [4], the system named is HeLa cells. The experiment in a line: Growth inhibition and Proto IX accumulation in HeLa cells (Example 2). It counts as cell-based, human. Particulars: for Amount of Proto IX: average amount per 10^6 cells. The protocol: HeLa cells, in logarithmic growth phase having been cultured for 6 days in six one-liter Falcon tissue culture flasks at 37° C.), were washed in phosphate buffered saline (PBS). A 0.25% solution of trypsin in PBS was added, and, after several minutes, the cells were gently removed and placed into 110 mL of a 25 mM solution of Hepes in Minimum Essential Medium (MEM), supplemented with 10% v/v inactivated calf serum, 1.1 mL of a 200 mM solution of glutamine in 0.85% saline solution, and 11,000 units of penicillin/11,000 mcg streptomycin.
Aliquots (5.0 mL each) of the resuspended cell culture were placed into 50 mL Falcon tissue culture flasks, with or without herbicide, and incubated in the dark at 37° C. for 4 days, the herbicide being added in dilute acetone solution as in Example 1. Acetone was also added to the controls to provide a concentration of acetone of 0.2% v/v therein. The amount of herbicide was such as to provide the concentrations specified in Table 2 below.
Extraction: The media from each of the flasks were placed in glass round bottom tubes, while the cells adhering to the bottom of the flasks were loosened by the addition of 0.5 mL of a 0.25% solution of trypsin in PBS, and after several minutes at 37° C., then washed from the flasks and recombined with their media. Aliquots of 100 μL were then removed from each cell suspension to determine cell density. The remaining 5.4 mL of cell suspension was then sonified for 30 minutes to disrupt the cells.
Ten mL of basic acetone (90% acetone:10% 0.1 N NH4 OH) was then added to each tube, and the tubes were centrifuged to remove protein and cell debris. Five mL of water was added to the supernatant, followed by 0.5 mL of a saturated aqueous solution of NaCl. The pH was then adjusted to 6.8 by the dropwise addition of 2 M KH2 PO4. The aqueous acetone extract was then loaded onto a C8 Baker Prep column. The columns were dried and then washed with 2 mL of water. The tetrapyrroles were eluted with 3 mL of 90/10 CH3 OH/H2 O. As in Example 1, all these extraction procedures were carried out substantially entirely under non-protoporphrin IX-exciting light (e.g. green light) or in the dark (e.g. in opaque covered containers). The fluorescence of the extracts was then determined on a SPEX spectrofluorometer. Protoporphyrin IX ("Proto IX") accumulation was quantified utilizing predetermined extinction coefficients.

As a reminder, the inhibition is the drop in the measured response relative to a control, in per cent.

With `COC(=O)c1cc(Oc2ccc(C(F)(F)F)cc2Cl)ccc1[N+](=O)[O-]` [Agent 6b], in assay [1], the “concentration of Proto IX in tissue, Adrenal” value (“concentration … Adrenal” for short) is on record as 23 ug of Proto IX per gram of tis; the “concentration of Proto IX in tissue, Intestine” value (from here on “concentration … Intestine”) was 51 ug of Proto IX per gram of tis; the “concentration of Proto IX in tissue, Kidneys” value (“concentration … Kidneys” below) was 22 ug of Proto IX per gram of tis; the “concentration of Proto IX in tissue, Liver” value (“concentration … Liver” for short) is listed as 12 ug of Proto IX per gram of tis. For the same compound, in assay [1], the “concentration of Proto IX in tissue, Tumor” value (“concentration … Tumor” below) is 14 ug of Proto IX per gram of tis; the “Proto IX Mean Cps per gram, Adrenal” value was 2529 Cps per gram × 10^3; the “Proto IX Mean Cps per gram, Kidneys” value is 2441 Cps per gram × 10^3; the “Proto IX Mean Cps per gram, Liver” value turned out to be 1261 Cps per gram × 10^3. In addition, in assay [1], the “Proto IX Mean Cps per gram, Tumor” value came out at 1520 Cps per gram × 10^3 and the “Weight of Tumor as excised” value stood at 90 mg. Further, in assay [1] (samples diluted with 3 parts basic acetone to one part sample), the “Proto IX Mean Cps per gram, Intestine” value is 5577 Cps per gram × 10^3. In addition, the activation at 100 µM in the assay on HeLa cells [2] was 366%.
Regarding `CCCn1c(=O)ccc2cc(F)c(-n3nc(C)n(C(F)F)c3=O)cc21` [Agent 6f], in assay [1], the “concentration … Adrenal” value is 51 ug of Proto IX per gram of tis; the “concentration … Intestine” value was 11 ug of Proto IX per gram of tis; the “concentration … Kidneys” value is on record as 6 ug of Proto IX per gram of tis; the “concentration … Liver” value is given as 11 ug of Proto IX per gram of tis. In addition, in assay [1], the “concentration … Tumor” value was 4 ug of Proto IX per gram of tis; the “Proto IX Mean Cps per gram, Adrenal” value came out at 5611 Cps per gram × 10^3; the “Proto IX Mean Cps per gram, Kidneys” value was 661 Cps per gram × 10^3; the “Proto IX Mean Cps per gram, Liver” value was determined as 1170 Cps per gram × 10^3. Further, in assay [1], the “Proto IX Mean Cps per gram, Tumor” value is 449 Cps per gram × 10^3 and the “Weight of Tumor as excised” value stood at 69 mg. Besides, the “Proto IX Mean Cps per gram, Intestine” value in assay [1] (undiluted samples (6j Day 7)) is given as 1157 Cps per gram × 10^3. In addition, the activation at 100 µM in the assay on HeLa cells [2] was determined as 280%.
For `C#CCN1C(=O)C(F)Oc2cc(F)c(-n3nc(C)n(C(F)F)c3=O)cc21` (stereo not shown) [Agent 6g], in assay [1], the “concentration … Adrenal” value is 18 ug of Proto IX per gram of tis; the “concentration … Intestine” value is recorded as 4 ug of Proto IX per gram of tis; the “concentration … Kidneys” value is 6 ug of Proto IX per gram of tis; the “concentration … Liver” value is 7 ug of Proto IX per gram of tis. In assay [1], the “concentration … Tumor” value is 2 ug of Proto IX per gram of tis; the “Proto IX Mean Cps per gram, Adrenal” value was 1984 Cps per gram × 10^3; the “Proto IX Mean Cps per gram, Kidneys” value was determined as 606 Cps per gram × 10^3; the “Proto IX Mean Cps per gram, Liver” value is given as 803 Cps per gram × 10^3. In assay [1], the “Proto IX Mean Cps per gram, Tumor” value stood at 166 Cps per gram × 10^3 and the “Weight of Tumor as excised” value was found to be 250 mg. In assay [1] (undiluted samples (6j Day 7)), the “Proto IX Mean Cps per gram, Intestine” value was found to be 466 Cps per gram × 10^3. In the assay with HeLa cells [2], the activation at 100 µM came to 326%.
Consider `CCOC(=O)C(C)Oc1ccc(Oc2cc(-n3nc(C)n(C(F)F)c3=O)c(F)cc2Cl)cc1` (stereo not shown) [Agent C], for which the “Amount of Proto IX” value in the assay with HeLa cells [3] was determined as 3.5 pmol; in the assay with HeLa cells [4] (1 μM agent) it was 0.19 pmol; in the assay with HeLa cells [4] (10 μM agent), 0.57 pmol; with HeLa cells [4] (100 μM agent) it was 4.41 pmol. Also, in the assay with HeLa cells [3], the “Fluorescence Emission cps 400/630” value was 33477 cps. In addition, in the assay with HeLa cells [4] (Homo sapiens, HeLa, 96 h, 1 μM agent, percent of control, read-out: Relative % proto IX), the activity at 1 µM is 86%. For the same compound, the activity at 10 µM with HeLa cells [4] (Homo sapiens, HeLa, 96 h, 10 μM agent, percent of control, read-out: Relative % proto IX) worked out at 259%. For the same compound, the inhibition at 100 µM in the assay on HeLa cells [4] (Homo sapiens, HeLa, 96 h, 100 μM agent, 4 days in the dark) is 52%. Besides, the inhibition at 1 µM in the assay on HeLa cells [4] (Homo sapiens, HeLa, 1 μM agent, negative values indicate that growth occurred) was -26%. The inhibition at 10 µM in the assay on HeLa cells [4] (Homo sapiens, HeLa, 10 μM agent, negative values indicate that growth occurred) is -15%.
